Here are results for ten molecules from patent publication US4098995A, “Polygalactosido-sucrose Poly(H-)sulfate salts” (American Cyanamid Company, priority 1976, dated 1978).

Values joined by “and” are separate entries in the source; they are usually repeats but may differ in a detail not shown here. Equal entries are not always repeated. Structures can show the parent of a compound that is named as a salt.

In experiment [1] the test system is late components of human complement (C3-C9). Description: Test, Code 035 (C3-C9 inhibitor), lysis of EAC 142 by late complement components. The following applies: serial two-fold dilution assay; higher well number indicates higher activity. It counts as cell-based. The source says:
(§1) An active inhibitor protects C2 from C1 and C4; (ii) Test, Code 035 (C3-C9 inhibitor) - This test determines the ability of the late components of human complement (C3-C9) to lyse EAC 142 in the presence of appropriate dilutions of the test compound. An active inhibitor protects EAC 142 from lysis by human C3-C9; (iii) Test, Code 036 (C-Shunt inhibitor) -- In this test human erythrocytes rendered fragile are lysed in autologous serum via the shunt pathway activated by cobra venom factor in the presence of appropriate dilutions of the test compound. Inhibition of the shunt pathway results in failure of lysis; (iv) Forssman Vasculitis Test -- Here, the well known complement dependent lesion, Forssman vasculitis, is produced in guinea pigs by intradermal injection of rabbit anti-Forssman antiserum. The lesion is measured in terms of diameter, edema and hemorrhage and the extent to which a combined index of these is inhibited by prior intraperitoneal injection of the test compound at 200 mg/kg is then reported, unless otherwise stated; (v) Forssman Shock Test -- Lethal shock is produced in guinea pigs by an i.v. injection of anti-Forssman antiserum and the harmonic mean death time of treated guinea pigs is compared with that of simultaneous controls; (vi) Complement Level Reduction Test -- In this test, the above dosed guinea pigs, or others, are bled for serum and the complement level is determined in undiluted serum by the capillary tube method of U.S. Pat. No. 3,876,376 and compared to undosed control guinea pigs; and (vii) Cap 50 Test -- Here, appropriate amounts of the test compound are added to a pool of guinea pig serum in vitro, after which the undiluted serum capillary tube assay referred to above is run. The concentration of compound inhibiting 50% is reported.
(§2) **Activity in wells, a serial dilution assay. Higher well numer indicates
(§3) higher activity. The serial dilutions are two-fold.

The next experiment has as its target activated human C1 (Homo sapiens, UniProt P09871). Nature of the experiment: Test, Code 026 (C1 inhibitor). Format: biochemical. The following applies: serial two-fold dilution assay, higher well number indicates higher activity.
Excerpt: as §1, §2, §3

A further experiment has as its system shunt pathway. Description: Test, Code 036 (C-Shunt inhibitor), lysis of fragile human erythrocytes via shunt pathway activated by cobra venom factor. It counts as cell-based. The following applies: serial two-fold dilution assay, higher well number indicates higher activity.
Excerpt: as §1, §2, §3

In another experiment the test system is whole complement. Nature of the experiment: Complement Level Reduction Test in dosed guinea pigs (serum whole complement, capillary tube assay). Format: in vivo, guinea pig. Particulars: 200 mg/kg.
The conditions of experiment [2]: literature; cited from earlier work.
The subject of experiment [3] is complement. Description: Complement inhibiting activity, tests disclosed herein.
The test system of experiment [4] is complement. The following applies: literature; cited from earlier work.

With `O=S(=O)(O)OC[C@H]1O[C@H](OC[C@H]2O[C@H](O[C@]3(COS(=O)(=O)O)O[C@H](COS(=O)(=O)O)[C@@H](OS(=O)(=O)O)[C@@H]3OS(=O)(=O)O)[C@H](OS(=O)(=O)O)[C@@H](OS(=O)(=O)O)[C@@H]2OS(=O)(=O)O)[C@H](OS(=O)(=O)O)[C@@H](OS(=O)(=O)O)[C@H]1OS(=O)(=O)O` [Raffinose Poly(H-)sulfate Triethylamine Salt], the “In Vitro Activity 035” value in experiment [1] is recorded as “N”. The “In Vitro Activity 026 (activity in wells)” value at activated human C1 was 10 wells and 9 wells. In the experiment on shunt pathway, the “In Vitro Activity 036” value was “N”.

For `O=S(=O)(O)OC[C@H]1O[C@H](OC[C@H]2O[C@H](O[C@]3(COS(=O)(=O)O)O[C@H](COS(=O)(=O)O)[C@@H](OS(=O)(=O)O)[C@@H]3OS(=O)(=O)O)[C@H](OS(=O)(=O)O)[C@@H](OS(=O)(=O)O)[C@@H]2OS(=O)(=O)O)[C@H](OS(=O)(=O)O)[C@@H](OS(=O)(=O)O)[C@H]1OS(=O)(=O)O` [Raffinose Poly(H--)sulfate Sodium Salt, Raffinose Poly(H-)sulfate Sodium Salt], the “In Vitro Activity 026 (activity in wells)” value on activated human C1 (Sodium Salt) is on record as 9 wells. In addition, in the experiment with shunt pathway (Sodium Salt), the “In Vitro Activity 036” value is 1 wells.

On to `O=S(=O)(O)OC[C@H]1O[C@H](OC[C@H]2O[C@H](OC[C@H]3O[C@H](O[C@]4(COS(=O)(=O)O)O[C@H](COS(=O)(=O)O)[C@@H](OS(=O)(=O)O)[C@@H]4OS(=O)(=O)O)[C@H](OS(=O)(=O)O)[C@@H](OS(=O)(=O)O)[C@@H]3OS(=O)(=O)O)[C@H](OS(=O)(=O)O)[C@@H](OS(=O)(=O)O)[C@H]2OS(=O)(=O)O)[C@H](OS(=O)(=O)O)[C@@H](OS(=O)(=O)O)[C@H]1OS(=O)(=O)O` [Stachyose Poly(H--)sulfate Sodium Salt, Stachyose Poly(H-)sulfate Sodium Salt], for which the “In Vivo Activity (Guinea Pig) Percent Inhibition” value in the experiment with whole complement (intraperitoneal, Time (Hours) 30) is on record as -47%; in the experiment on whole complement (intraperitoneal, Time (Hours) 60) it was -56%; in the experiment on whole complement (intraperitoneal, Time (Hours) 120), -65%; in the experiment with whole complement (intravenous, Time (Hours) 2) it was -86%; in the experiment with whole complement (intravenous, Time (Hours) 30), -93%; with whole complement (intravenous, Time (Hours) 120) it was -17%. For the same molecule, the “In Vitro Activity 035” value in experiment [1] is recorded as “N”. For the same molecule, the “In Vitro Activity 026 (activity in wells)” value at activated human C1 (Sodium Salt) is 13 wells and 11 wells. Also, the “In Vitro Activity 036” value with shunt pathway (Sodium Salt) is 4 wells and 2 wells.

Take `O=S(=O)(O)OC[C@H]1O[C@H](OC[C@H]2O[C@H](OC[C@H]3O[C@H](O[C@]4(COS(=O)(=O)O)O[C@H](COS(=O)(=O)O)[C@@H](OS(=O)(=O)O)[C@@H]4OS(=O)(=O)O)[C@H](OS(=O)(=O)O)[C@@H](OS(=O)(=O)O)[C@@H]3OS(=O)(=O)O)[C@H](OS(=O)(=O)O)[C@@H](OS(=O)(=O)O)[C@H]2OS(=O)(=O)O)[C@H](OS(=O)(=O)O)[C@@H](OS(=O)(=O)O)[C@H]1OS(=O)(=O)O` [Stachyose Poly(H--)sulfate Triethylamine Salt] [Stachyose Poly(H-)sulfate Triethylamine Salt]: the “In Vitro Activity 035” value in experiment [1] is reported as “N”. On activated human C1, the “In Vitro Activity 026 (activity in wells)” value was 14 wells. Besides, the “In Vitro Activity 036” value in the experiment with shunt pathway was 2 wells.

For the molecule `O=S(=O)(O)OC[C@H]1O[C@H](OC[C@H]2O[C@H](OC[C@H]3O[C@H](O[C@]4(COS(=O)(=O)O)O[C@H](COS(=O)(=O)O)[C@@H](OS(=O)(=O)O)[C@@H]4OS(=O)(=O)O)[C@H](OS(=O)(=O)O)[C@@H](OS(=O)(=O)O)[C@@H]3OS(=O)(=O)O)[C@H](OS(=O)(=O)O)[C@@H](OS(=O)(=O)O)[C@H]2OS(=O)(=O)O)[C@H](OS(=O)(=O)O)[C@@H](OS(=O)(=O)O)[C@H]1OS(=O)(=O)O` [Stachyose Poly(H--)sulfate Trimethylamine Salt] [Stachyose Poly(H-)sulfate Trimethylamine Salt], the “In Vitro Activity 035” value in experiment [1] is given as “N”. Further, at activated human C1, the “In Vitro Activity 026 (activity in wells)” value was 11 wells and 12 wells.

Consider `NCCCCCC(=O)O` [epsilon-aminocaproic acid], for which the “treatment of hereditary angioneurotic edema” value in experiment [2] is “used with success”.

`NC[C@H]1CC[C@H](C(=O)O)CC1` [tranexamic acid]: the “treatment of hereditary angioneurotic edema” value in experiment [2] was “used with success”.

As to Stachyose trisulfate, the complement inhibiting activity result in the experiment with complement [3] is recorded as “found lacking in complement inhibiting activity”.

Take heparin: the “complement inhibiting activity (reported)” value in the experiment on complement [4] is “reported as having complement inhibiting activity”.

As to pentosan polysulfo ester, in the experiment on complement [4], the “complement inhibiting activity (reported)” value was “reported as having complement inhibiting activity”.
